# The source made the active and inactive calls.
# Columns and labels:
# [1] = molecular target: Metabotropic glutamate receptor 5 (Rattus norvegicus, UniProt P31424); assay: Identification of a glycine sulfonamide based non-MPEP site positive allosteric potentiator (PAM) of mGlu5 (calcium_assay).; assay type: functional
# cells = conditions: HEK293;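 also: cells exposed to compound for 48 hours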
# HEK293 = assay: viability loss in HEK293T cells – cell-based, ATP luminescence, cherry-pick samples, cytotoxicity control, dose response (AID 687005); assay type: functional; conditions: Homo sapiens;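 also: cells exposed to compound for 48 hours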
# [2] = HEK293 Cytotoxicity Assay Measured in Cell-Based System Using Plate Reader - 7071-01_Inhibitor_Dose_CherryPick_Activity_Set2.; assay type: functional
# Protein Tat = Protein Tat (Human immunodeficiency virus type 1 group M subtype B (isolate HXB2)(HIV-1), UniProt P04608); assay type: functional;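 also: tat binding to TAR RNA read out by fluorescence polarization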
# Chain of Protein Tat (P04608 whole entry): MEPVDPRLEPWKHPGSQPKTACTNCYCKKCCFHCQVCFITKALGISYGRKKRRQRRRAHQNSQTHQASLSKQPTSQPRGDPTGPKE
# Protein RecA = molecular target: T1, Protein RecA (Mycobacterium tuberculosis, UniProt P9WHJ3); assay: Fluorescence Cell-Free Homogeneous Dose Retest to Identify Inhibitors of RecA-Intein Splicing Activity. [Related pubchem assays (depositor defined):AID2097, AID2223, AID489010, AID492950]; assay type: functional
# T1 sequence (P9WHJ3 whole entry): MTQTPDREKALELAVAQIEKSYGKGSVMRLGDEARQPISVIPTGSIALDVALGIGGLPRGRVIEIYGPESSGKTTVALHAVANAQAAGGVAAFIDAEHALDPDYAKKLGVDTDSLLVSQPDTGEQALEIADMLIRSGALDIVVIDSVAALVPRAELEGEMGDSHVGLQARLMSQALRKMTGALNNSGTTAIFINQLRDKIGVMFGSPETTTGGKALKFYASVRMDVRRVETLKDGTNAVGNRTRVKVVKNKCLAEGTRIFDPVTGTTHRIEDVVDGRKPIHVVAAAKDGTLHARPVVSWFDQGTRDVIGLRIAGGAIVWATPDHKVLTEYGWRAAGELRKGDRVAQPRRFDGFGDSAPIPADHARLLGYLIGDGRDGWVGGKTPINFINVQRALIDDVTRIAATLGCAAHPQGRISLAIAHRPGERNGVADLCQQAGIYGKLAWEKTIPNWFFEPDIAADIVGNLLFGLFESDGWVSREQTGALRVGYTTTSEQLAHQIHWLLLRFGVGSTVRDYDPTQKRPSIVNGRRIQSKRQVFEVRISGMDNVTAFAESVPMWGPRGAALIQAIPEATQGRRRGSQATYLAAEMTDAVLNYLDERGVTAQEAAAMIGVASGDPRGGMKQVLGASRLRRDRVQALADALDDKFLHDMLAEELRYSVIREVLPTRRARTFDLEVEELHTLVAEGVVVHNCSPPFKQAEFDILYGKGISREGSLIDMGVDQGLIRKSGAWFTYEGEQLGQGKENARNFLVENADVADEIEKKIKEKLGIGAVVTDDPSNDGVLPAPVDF
# [3] = molecular target: T2, Replicative DNA helicase DnaB (Mycobacterium tuberculosis, UniProt P9WMR3); assay: DnaB intein splicing inhibitors, dose response, biochemical, cell-free fluorescence (AID 449749); assay type: functional
# T2 sequence (P9WMR3 whole entry): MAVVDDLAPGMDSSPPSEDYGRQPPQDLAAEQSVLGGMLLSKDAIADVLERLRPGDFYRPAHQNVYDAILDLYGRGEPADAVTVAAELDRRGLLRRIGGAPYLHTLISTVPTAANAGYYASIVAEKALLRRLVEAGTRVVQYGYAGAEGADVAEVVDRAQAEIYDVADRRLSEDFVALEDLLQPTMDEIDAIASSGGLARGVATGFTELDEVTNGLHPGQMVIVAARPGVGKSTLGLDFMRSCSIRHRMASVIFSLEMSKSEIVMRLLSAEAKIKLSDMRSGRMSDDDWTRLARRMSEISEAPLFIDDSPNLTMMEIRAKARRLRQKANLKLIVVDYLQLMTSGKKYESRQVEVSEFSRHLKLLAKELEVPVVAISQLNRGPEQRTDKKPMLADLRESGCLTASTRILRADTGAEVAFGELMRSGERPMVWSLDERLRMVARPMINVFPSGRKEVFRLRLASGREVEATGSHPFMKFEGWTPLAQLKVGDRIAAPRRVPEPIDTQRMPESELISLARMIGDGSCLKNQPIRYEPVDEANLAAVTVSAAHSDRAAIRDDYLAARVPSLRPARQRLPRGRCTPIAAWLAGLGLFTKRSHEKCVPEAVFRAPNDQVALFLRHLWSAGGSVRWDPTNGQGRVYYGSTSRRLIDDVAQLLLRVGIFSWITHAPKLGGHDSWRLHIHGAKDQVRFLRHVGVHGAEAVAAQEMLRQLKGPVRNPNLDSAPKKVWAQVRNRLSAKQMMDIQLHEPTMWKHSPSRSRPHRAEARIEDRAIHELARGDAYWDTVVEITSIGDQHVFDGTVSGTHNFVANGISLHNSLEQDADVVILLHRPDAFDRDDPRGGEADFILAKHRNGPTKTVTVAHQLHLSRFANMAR
# Large T antigen = Large T antigen (Simian virus 40, UniProt P03070); assay type: functional, Betapolyomavirus macacae;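 also: Confirmatory-stage PubChem screen for compounds that inhibit SV40 T antigen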
# Chain of Large T antigen (P03070 whole entry): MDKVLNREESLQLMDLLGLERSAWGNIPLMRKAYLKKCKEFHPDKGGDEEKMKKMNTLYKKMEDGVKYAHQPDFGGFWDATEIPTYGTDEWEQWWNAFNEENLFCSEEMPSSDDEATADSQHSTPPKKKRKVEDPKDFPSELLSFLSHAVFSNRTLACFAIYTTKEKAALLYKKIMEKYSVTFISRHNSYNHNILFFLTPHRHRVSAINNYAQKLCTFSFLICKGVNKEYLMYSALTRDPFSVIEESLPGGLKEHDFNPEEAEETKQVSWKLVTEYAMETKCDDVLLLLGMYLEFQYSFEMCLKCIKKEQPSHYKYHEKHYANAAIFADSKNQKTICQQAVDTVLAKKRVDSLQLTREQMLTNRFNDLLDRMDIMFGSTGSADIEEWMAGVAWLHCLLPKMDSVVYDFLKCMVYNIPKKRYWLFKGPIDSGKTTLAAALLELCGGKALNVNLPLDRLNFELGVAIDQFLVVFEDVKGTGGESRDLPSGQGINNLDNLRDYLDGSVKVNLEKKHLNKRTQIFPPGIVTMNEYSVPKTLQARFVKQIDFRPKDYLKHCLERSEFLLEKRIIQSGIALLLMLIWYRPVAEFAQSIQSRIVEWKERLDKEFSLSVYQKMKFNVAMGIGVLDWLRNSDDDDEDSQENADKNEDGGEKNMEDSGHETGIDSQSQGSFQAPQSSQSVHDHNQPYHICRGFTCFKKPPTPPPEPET
# Transthyretin = Transthyretin (Homo sapiens, UniProt P02766); assay: Luminescence-based cell-based high throughput dose response assay to identify activators of Transthyretin (TTR) transcription.; assay type: functional
# H4 = assay: Luminescence Cell-Based Dose Response HTS to Identify Activators of 5'UTR Stem-Loop Driven Prion Protein mRNA Translation in H4 Neuroglioblastoma Cells. [Related pubchem assays: 1829 (Project Summary), 1814 (Primary HTS)]; assay type: functional; conditions: Homo sapiens
# [4] = Luminescence Cell-Based Dose Confirmation HTS to Identify Activators of 5'UTR Stem-Loop Driven Alpha-Synuclein mRNA Translation in H4 Neuroglioblastoma Cells. [Related pubchem assays: 1829 (Project Summary), 1814 (Primary HTS)]; assay type: functional
# [5] = Luminescence Cell-Based Dose Response HTS to Identify Activators of Luciferase Translation or Activity in H4 […] Cells. [Related pubchem assays: 1829 (Project Summary), 1814 (Primary HTS)]; assay type: functional
# [6] = toxicity toward immortalized ovarian surface epithelium – cell-based, plate reader, dry powder samples, cytotoxicity control for PAX8 inhibitor project, dose response (AID 743045); assay type: functional
# [7] = OVCAR8 cell viability loss – plate reader, dry powder samples, PAX8 project, dose response (AID 743197); assay type: functional, cell-based; conditions: OVCAR-8
# [8] = OVCAR-3 cell viability loss – plate reader, dry powder samples, PAX8 inhibitor project, dose response (AID 743044); assay type: functional, cell-based
# [9] = IGROV1 cell killing – plate reader, dry powder samples, PAX8 inhibitor project, dose response (AID 743043); assay type: functional, cell-based; conditions: IGROV-1
# [10] = A2780 cell killing – plate reader, dry powder samples, cytotoxicity control, dose response (AID 743046); assay type: functional, cell-based
# Paired box protein Pax-8 = Paired box protein Pax-8 (Homo sapiens, UniProt Q06710); assay: PAX8 transcriptional activity inhibition in RMG-I – RMG-I cells, luciferase, cherry-pick, dose response (AID 687027); assay type: functional, cell-based;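 also: luciferase reporter driven by Pax8 target thyroperoxidase promoter measured by SteadyGlo luminescence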
# Chain of Paired box protein Pax-8 (Q06710 whole entry): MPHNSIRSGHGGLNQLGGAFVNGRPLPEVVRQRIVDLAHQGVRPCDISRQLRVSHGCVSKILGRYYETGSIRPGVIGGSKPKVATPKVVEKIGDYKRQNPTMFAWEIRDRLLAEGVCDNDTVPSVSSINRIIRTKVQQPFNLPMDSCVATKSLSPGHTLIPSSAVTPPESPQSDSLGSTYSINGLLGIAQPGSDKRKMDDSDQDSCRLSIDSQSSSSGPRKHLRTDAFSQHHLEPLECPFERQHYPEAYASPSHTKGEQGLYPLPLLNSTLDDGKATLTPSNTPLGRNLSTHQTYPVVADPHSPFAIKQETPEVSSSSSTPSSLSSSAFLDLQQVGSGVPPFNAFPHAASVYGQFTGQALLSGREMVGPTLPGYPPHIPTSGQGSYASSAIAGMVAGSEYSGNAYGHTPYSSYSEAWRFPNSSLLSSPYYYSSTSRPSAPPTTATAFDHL
# [11] = molecular target: RNA-editing ligase 1, mitochondrial (Trypanosoma brucei brucei, UniProt P86926); assay: inhibition of trypanosome RNA editing ligase – biochemical, fluorescence, Trypanosoma brucei, dose response (AID 1117295); assay type: functional
# Chain of RNA-editing ligase 1, mitochondrial (P86926 whole entry): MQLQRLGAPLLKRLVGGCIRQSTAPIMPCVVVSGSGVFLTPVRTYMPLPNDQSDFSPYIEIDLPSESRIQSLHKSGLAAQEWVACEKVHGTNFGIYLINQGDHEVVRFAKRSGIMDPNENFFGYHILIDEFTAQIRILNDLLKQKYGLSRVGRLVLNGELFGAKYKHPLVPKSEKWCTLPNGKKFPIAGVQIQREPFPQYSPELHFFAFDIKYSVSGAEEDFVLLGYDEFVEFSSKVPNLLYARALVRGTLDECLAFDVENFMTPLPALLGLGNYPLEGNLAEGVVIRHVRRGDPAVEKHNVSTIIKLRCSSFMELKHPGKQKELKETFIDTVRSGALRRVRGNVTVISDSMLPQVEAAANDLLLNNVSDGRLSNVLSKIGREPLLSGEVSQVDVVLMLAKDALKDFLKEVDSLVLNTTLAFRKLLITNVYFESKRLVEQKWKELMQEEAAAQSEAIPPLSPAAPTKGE
# Genome polyprotein = Genome polyprotein (dengue virus type 2, UniProt P29990); assay: flavivirus cap methylation enzyme inhibition – biochemical, confirmation dose response, primary screen (AID 588689); assay type: functional
# Chain of Genome polyprotein (P29990 2492-3391 limits assumed): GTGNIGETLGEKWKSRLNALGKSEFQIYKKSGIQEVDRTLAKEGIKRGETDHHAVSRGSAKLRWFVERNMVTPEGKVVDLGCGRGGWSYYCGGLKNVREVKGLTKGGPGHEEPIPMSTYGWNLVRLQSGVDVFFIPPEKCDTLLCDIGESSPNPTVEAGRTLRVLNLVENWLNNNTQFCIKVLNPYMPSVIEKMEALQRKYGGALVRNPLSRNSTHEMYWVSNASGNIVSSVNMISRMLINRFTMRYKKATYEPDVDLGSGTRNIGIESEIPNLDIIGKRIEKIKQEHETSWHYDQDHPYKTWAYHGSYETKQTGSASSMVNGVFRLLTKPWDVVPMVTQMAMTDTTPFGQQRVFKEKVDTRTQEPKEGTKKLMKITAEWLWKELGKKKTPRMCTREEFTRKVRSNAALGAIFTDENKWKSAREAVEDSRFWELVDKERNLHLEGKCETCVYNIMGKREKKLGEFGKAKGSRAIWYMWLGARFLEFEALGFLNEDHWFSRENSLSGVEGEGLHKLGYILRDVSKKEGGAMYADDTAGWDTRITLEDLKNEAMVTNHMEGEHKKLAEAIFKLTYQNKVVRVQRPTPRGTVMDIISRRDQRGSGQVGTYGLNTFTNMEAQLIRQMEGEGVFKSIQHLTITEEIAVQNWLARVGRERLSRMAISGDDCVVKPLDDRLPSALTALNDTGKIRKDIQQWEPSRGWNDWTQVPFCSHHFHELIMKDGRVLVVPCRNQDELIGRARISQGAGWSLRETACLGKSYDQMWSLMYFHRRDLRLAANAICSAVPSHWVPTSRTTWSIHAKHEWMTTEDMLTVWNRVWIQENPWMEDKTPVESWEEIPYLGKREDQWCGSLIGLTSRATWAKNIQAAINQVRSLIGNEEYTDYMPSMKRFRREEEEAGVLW
# [12] = molecular target: Induced myeloid leukemia cell differentiation protein Mcl-1 (Homo sapiens, UniProt Q07820); assay type: functional
# Chain of Induced myeloid leukemia cell differentiation protein Mcl-1 (Q07820 whole entry): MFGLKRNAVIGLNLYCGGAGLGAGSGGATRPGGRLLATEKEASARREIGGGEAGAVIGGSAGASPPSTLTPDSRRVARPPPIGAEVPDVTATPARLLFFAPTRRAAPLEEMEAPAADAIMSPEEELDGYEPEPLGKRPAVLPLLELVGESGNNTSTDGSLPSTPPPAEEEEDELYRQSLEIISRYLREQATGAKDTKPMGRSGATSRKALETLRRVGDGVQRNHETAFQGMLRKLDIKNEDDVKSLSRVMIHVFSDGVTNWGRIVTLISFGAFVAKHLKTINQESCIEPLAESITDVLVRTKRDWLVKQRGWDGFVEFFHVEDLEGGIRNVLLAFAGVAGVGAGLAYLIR
# [13] = molecular target: T3, Mannose-6-phosphate isomerase (Homo sapiens, UniProt P34949); assay: MPI inhibition at elevated mannose 6-phosphate – biochemical, fluorescence intensity, high mannose 6-phosphate, primary screen (AID 1220)
# T3 sequence (P34949 whole entry): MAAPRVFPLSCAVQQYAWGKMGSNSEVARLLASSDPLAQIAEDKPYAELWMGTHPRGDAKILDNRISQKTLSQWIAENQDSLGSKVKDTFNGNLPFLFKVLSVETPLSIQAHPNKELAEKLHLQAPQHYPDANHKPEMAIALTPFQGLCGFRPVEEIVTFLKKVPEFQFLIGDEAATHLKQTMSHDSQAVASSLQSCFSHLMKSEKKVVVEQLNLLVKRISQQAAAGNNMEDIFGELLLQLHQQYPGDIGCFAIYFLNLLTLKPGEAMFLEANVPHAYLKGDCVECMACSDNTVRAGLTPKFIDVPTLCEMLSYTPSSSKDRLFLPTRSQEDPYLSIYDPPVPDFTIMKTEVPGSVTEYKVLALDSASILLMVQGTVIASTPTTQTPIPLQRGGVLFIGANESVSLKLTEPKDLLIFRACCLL
# [14] = molecular target: T4, Histone-lysine N-methyltransferase NSD2 (Homo sapiens, UniProt O96028); assay type: biochemical
# T4 sequence (O96028 whole entry): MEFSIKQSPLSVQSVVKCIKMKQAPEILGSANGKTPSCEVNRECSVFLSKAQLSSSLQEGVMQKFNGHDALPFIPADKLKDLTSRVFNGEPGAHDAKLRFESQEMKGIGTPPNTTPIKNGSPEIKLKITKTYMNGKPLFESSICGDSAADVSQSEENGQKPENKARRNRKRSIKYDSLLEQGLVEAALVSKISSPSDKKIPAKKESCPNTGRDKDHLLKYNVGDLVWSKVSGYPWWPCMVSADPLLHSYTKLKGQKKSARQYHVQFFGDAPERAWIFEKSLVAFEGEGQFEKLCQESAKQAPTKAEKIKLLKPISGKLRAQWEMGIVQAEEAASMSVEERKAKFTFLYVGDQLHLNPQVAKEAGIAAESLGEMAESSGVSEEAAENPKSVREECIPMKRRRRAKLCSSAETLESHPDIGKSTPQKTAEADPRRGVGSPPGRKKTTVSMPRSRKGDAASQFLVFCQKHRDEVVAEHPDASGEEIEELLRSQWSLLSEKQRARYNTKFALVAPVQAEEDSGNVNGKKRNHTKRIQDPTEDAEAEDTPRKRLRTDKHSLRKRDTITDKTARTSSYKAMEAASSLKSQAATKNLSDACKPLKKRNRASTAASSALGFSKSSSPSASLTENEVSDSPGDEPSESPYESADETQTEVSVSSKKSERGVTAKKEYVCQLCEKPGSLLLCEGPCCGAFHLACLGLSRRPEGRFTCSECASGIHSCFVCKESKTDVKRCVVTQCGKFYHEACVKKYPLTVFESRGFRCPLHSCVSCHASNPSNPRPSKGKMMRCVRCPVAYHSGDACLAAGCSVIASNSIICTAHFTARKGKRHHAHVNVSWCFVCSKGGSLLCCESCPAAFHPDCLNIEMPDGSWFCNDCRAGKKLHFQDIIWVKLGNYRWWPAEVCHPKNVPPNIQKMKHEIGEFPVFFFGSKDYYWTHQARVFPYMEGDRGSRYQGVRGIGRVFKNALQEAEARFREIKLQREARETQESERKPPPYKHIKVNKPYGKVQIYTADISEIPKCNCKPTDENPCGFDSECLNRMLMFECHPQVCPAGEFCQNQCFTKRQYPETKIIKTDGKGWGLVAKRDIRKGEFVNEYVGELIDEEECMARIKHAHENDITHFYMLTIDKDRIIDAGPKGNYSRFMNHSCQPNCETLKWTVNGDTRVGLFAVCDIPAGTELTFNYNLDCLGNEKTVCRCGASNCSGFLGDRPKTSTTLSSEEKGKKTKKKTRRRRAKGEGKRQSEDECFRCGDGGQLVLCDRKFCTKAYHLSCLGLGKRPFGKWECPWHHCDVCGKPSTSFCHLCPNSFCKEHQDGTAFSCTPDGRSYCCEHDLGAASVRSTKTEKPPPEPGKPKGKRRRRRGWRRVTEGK
# [15] = MITF: Counter assay: A375 proliferation Measured in Cell-Based System Using Plate Reader - 2084-03_Inhibitor_Dose_DryPowder_Activity_Set8.; assay type: functional; conditions: A-375
# [16] = inhibitors of TRPM1-promoter reporter in SK-MEL-5 – cell-based, luciferase, dry powder, set 8, MITF inhibitor project, dose response (AID 624430); assay type: functional
# [17] = MITF Orthogonal Assay: SK-MEL-5 CTG Assay Measured in Cell-Based System Using Plate Reader - 2084-02_Inhibitor_Dose_DryPowder_Activity_Set7.; assay type: functional
# Chain of Metabotropic glutamate receptor 5 (P31424 whole entry): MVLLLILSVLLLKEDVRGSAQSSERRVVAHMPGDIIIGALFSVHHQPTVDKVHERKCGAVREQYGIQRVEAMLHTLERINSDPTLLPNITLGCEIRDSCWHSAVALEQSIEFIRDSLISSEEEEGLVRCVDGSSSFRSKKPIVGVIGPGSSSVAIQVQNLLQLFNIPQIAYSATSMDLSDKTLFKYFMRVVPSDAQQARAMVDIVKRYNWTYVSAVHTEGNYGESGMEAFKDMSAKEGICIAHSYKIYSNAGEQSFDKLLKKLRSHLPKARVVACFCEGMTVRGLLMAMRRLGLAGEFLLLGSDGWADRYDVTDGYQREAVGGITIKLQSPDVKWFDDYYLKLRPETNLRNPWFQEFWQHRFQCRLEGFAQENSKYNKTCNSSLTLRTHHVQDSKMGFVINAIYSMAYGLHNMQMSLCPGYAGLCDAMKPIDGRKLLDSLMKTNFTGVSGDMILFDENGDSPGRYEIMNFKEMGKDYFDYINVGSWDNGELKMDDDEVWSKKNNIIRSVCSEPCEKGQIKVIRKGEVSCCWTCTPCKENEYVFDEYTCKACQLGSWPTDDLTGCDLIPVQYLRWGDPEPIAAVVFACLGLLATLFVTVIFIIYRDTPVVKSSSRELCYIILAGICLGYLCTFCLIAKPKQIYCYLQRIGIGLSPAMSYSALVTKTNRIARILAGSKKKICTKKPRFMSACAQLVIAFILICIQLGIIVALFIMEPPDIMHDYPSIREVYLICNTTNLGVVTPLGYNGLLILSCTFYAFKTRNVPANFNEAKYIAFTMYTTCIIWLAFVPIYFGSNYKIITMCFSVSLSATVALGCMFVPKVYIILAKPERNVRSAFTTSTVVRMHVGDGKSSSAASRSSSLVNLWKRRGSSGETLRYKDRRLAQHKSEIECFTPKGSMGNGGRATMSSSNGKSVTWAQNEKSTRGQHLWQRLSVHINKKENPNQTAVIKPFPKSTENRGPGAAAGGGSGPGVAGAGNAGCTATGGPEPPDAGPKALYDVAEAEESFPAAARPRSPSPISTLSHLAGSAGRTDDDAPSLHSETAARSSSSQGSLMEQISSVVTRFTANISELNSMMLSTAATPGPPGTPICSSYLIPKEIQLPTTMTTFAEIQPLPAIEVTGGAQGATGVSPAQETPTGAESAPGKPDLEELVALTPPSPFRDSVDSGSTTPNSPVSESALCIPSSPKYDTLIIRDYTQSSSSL
smiles,measurement,setting,value
CN(C(=O)CN(c1ccccc1Cl)S(C)(=O)=O)c1ccccc1,EC50,[1],10 µM (inconclusive)
CSc1nc2ccccc2n1CCOc1ccccc1,AC50,cells,> 52 µM (inactive)
O=C(C[C@@H]1CC[C@H]2[C@@H](COC[C@@H](O)CN2Cc2ccc(Cl)cc2)O1)NCc1cccc(F)c1,AC50,HEK293,21.4 µM (active)
same,AC50,[2],21.4 µM (active)
Cn1c(SCC(=O)c2cc(Cl)c(Cl)s2)nnc1-c1ccco1,IC50,Protein Tat,> 50 µM (active)
O=C(CCl)c1cc2c3c(c1)CC(=O)N3CCC2,EC50,Protein RecA,11.7 µM (active)
same,AC50,[3],35.9 µM (active)
same,IC50,Large T antigen,40.6 µM (active)
same,EC50,Transthyretin,> 167 µM (inactive)
CCS(=O)(=O)NCC[C@H]1CC[C@H](NS(=O)(=O)c2cccc(F)c2)[C@H](CO)O1,AC50,HEK293,33.5 µM (active)
same,AC50,[2],33.5 µM (active)
c1ccc(Sc2ncnc3c2oc2ccccc23)nc1,EC50,H4,90.1 µM (active)
same,EC50,[4],4.69 µM (active)
same,EC50,[5],26.6 µM (active)
same,EC50,Transthyretin,> 167 µM (inactive)
C[C@@H]1CCCCO[C@@H](CN(C)CC2CCCCC2)[C@H](C)CN([C@H](C)CO)C(=O)c2cc(NS(=O)(=O)c3ccc(Cl)cc3)ccc2O1,AC50,[6],41.4 µM (active)
same,AC50,[7],25.6 µM (active)
same,AC50,[8],23.4 µM (active)
same,AC50,[9],33.5 µM (active)
same,AC50,[10],20.4 µM (active)
same,AC50,Paired box protein Pax-8,5.5 µM (active)
COc1ccc(S(=O)(=O)Nc2ccc3c(c2)C(=O)N([C@H](C)CO)C[C@H](C)[C@@H](CN(C)S(=O)(=O)c2ccc(C)cc2)OCCCC[C@H](C)O3)cc1,AC50,[6],9.47 µM (active)
same,AC50,[7],14.8 µM (active)
same,AC50,[8],11.8 µM (active)
same,AC50,[9],33.5 µM (active)
same,AC50,[10],44 µM (active)
same,AC50,Paired box protein Pax-8,6.27 µM (active)
CS(=O)(=O)N(CC(=O)Nc1cccnc1F)c1ccccc1Cl,EC50,[1],1.69 µM
O=C(Cc1csc(N2CCOCC2)n1)N/N=C/c1ccc(O)c(O)c1O,IC50,[11],> 96.6 µM (inactive)
same,IC50,Genome polyprotein,> 100 µM (active)
same,IC50,[12],3.52 µM (active)
same,IC50,[13],8.94 µM (active)
same,AC50,[14],> 20 µM (inactive)
O=C1C(Nc2ccccc2)=CC(=O)c2ncccc21,AC50,[15],16.2 µM (active)
same,AC50,[16],0.413 µM (active)
same,AC50,[17],0.195 µM (active)
